# Experimental data: article PMC9386018, “A lymphatic-absorbed multi-targeted kinase inhibitor for myelofibrosis therapy” (Nature Communications, 2022)
# Values joined by “and” are separate entries in the source; they are usually repeats but may differ in a detail not shown here. Equal values may be shown once.
# Legend:
# [1] = test system: MPL^W515L mouse model of myelofibrosis; test: MPL^W515L MF mouse model: tibia bone marrow ADC by diffusion-weighted MRI; type: in vivo; conditions: MPL^W515L mice, oral 400 mg kg^−1 daily
# Method: Generation of the MPL^W515L mutant MF mouse model was similar to previously described methods. Briefly, female donor BALB/c mice were treated with 5-fluorouracil at 150 mg kg^−1 intraperitoneal for 5 d before harvesting bone marrow. Hematopoietic stem and progenitor cells were enriched with CD117 magnetic beads (Miltenyi Biotec), transduced with retrovirus containing MSCV-hMPL W515L-IRES-GFP, then 50,000 transduced HSPCs along with 300,000 total non-stem cells were injected intravenously into lethally irradiated female BALB/c recipients. Development of MF was evaluated by spleen volumes using MRI beginning ~14 d following bone marrow transplantation (BMT) as outlined below, continuing weekly until end of the study. Mice were separated into equal groups based on spleen size ~14–21 d post-BMT, then treated with vehicle (Maisine CC) or LP-182 at 400 mg kg^−1 daily by oral gavage for 14–28 d or until mice were euthanized using guidelines for end stage illness and humane endpoints. Untreated healthy control animals were used for experimental comparisons. […] Soluble protein extracts were isolated by centrifugation at 15,000 x g for 15 min at 4 °C, quantified using Micro BCA protein assay (Thermo Scientific), then mixed with reducing 6X SDS-PAGE loading dye, heated for 8 min at 95 °C, and stored at −20 °C until immuno-blot analysis. […]
# [2] = target: Target kinase isoforms (PI3K, mTOR, RAF, MEK) (Homo sapiens, UniProt P15056); test: Target kinase isoforms 10-point IC50 determination (Supplementary Fig. 7); type: biochemical; conditions: BRAF
# Chain of Target kinase isoforms (PI3K, mTOR, RAF, MEK) (Homo sapiens, UniProt P15056) (P15056 whole entry, canonical isoform): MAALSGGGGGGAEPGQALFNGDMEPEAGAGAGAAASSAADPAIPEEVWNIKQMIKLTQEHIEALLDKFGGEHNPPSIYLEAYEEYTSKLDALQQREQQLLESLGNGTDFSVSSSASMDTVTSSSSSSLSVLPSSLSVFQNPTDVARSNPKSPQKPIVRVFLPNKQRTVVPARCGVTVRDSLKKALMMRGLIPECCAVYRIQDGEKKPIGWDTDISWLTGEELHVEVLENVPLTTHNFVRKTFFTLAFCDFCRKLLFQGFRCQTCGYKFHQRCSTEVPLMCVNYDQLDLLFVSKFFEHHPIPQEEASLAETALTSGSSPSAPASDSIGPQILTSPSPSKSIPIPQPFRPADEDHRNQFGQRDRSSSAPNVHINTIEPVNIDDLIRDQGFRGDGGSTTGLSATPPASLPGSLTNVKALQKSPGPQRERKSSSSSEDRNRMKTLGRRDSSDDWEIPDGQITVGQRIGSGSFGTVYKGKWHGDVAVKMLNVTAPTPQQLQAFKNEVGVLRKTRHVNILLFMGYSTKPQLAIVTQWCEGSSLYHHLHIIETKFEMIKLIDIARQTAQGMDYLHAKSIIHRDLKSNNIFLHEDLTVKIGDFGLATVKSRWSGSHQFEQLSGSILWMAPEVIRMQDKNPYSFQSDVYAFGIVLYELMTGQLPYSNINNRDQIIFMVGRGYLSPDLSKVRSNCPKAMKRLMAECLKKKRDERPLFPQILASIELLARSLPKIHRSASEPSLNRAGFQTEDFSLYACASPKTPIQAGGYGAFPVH
# How it was run: (§1)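 Kinase activity across a 10-point dose series was corrected and normalized to vehicle-treated controls. IC50 values were derived by non-linear regression of percent activity. Kinome-wide percent inhibition was averaged over replicates.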
# [3] = target: Target kinase isoforms (PI3K, mTOR, RAF, MEK) (Homo sapiens, UniProt P36507); test: as above; type: biochemical; conditions: MEK2, replicates
# Chain of Target kinase isoforms (PI3K, mTOR, RAF, MEK) (Homo sapiens, UniProt P36507) (P36507 whole entry, canonical isoform): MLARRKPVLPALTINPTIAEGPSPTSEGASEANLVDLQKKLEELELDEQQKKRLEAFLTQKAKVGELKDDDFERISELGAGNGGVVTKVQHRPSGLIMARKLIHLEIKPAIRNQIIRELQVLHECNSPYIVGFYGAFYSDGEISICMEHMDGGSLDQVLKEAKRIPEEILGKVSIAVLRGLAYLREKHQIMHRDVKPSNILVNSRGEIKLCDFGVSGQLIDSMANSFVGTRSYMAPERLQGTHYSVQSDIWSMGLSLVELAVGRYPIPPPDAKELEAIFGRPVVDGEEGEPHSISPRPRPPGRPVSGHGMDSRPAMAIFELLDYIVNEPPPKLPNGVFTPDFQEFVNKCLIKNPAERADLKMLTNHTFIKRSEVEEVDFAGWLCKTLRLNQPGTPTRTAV
# How it was run: as §1
# [4] = target: Target kinase isoforms (PI3K, mTOR, RAF, MEK) (Homo sapiens, UniProt P04049); test: as above; type: biochemical; conditions: CRAF
# Chain of Target kinase isoforms (PI3K, mTOR, RAF, MEK) (Homo sapiens, UniProt P04049) (P04049 whole entry, canonical isoform): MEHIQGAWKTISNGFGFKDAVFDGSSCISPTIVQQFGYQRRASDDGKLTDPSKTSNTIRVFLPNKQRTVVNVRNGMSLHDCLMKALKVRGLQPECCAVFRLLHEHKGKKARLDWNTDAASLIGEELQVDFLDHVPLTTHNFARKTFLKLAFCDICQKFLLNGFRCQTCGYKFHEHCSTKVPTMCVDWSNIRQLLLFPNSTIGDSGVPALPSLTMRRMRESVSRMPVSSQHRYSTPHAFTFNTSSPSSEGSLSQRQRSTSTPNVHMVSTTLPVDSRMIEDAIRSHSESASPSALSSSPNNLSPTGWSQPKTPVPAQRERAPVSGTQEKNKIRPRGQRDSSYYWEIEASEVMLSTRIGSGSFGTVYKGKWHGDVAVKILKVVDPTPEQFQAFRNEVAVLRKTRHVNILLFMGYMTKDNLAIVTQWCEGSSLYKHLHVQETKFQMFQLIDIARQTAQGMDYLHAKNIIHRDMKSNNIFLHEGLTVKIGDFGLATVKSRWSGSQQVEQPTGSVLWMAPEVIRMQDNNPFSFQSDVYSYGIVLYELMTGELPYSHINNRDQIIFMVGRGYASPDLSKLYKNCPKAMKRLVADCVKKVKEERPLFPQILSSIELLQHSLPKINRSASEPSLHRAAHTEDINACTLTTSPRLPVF
# How it was run: as §1
# [5] = concentration 0.495 nM, 0.000495 µM
# [6] = concentration 1.52 nM, 0.00152 µM
# [7] = concentration 4.57 nM, 0.00457 µM
# [8] = concentration 41.2 nM, 0.0412 µM
structure (smiles),measurement,setting,value
"O=C(NOCCOCCOCCOCCC(=O)N1CCN(c2cnc3ccc(-c4cnc(Cl)c(NS(=O)(=O)c5ccc(F)cc5)c4)cc3n2)CC1)c1ccc(F)c(F)c1Nc1ccc(I)cc1F [LP-182, N-(2-(2-(2-(3-(4-(7-(6-chloro-5-((4-fluorophenyl)sulfonamido)pyridin-3-yl)quinoxalin-2-yl)piperazin-1-yl)-3-oxopropoxy)ethoxy)ethoxy)ethoxy)-3,4-difluoro-2-((2-fluoro-4-iodophenyl)amino)benzamide]",tibia bone marrow ADC change,[1],"variable, spatially-dependent increase in ADC values"
same,activity at 0.000495 µM,[2]; concentration 0.495 nM,100%
same,Kinase Activity (%) BRAF,[2]; [5],102% and 96% and 94% and 93%
same,activity at 0.00152 µM,[2]; concentration 1.52 nM,101%
same,Kinase Activity (%) BRAF,[2]; [6],98% and 95% and 94%
same,activity at 0.00457 µM,[2]; concentration 4.57 nM,90%
same,Kinase Activity (%) BRAF,[2]; [7],94% and 95% and 98% and 89% and 93%
same,Kinase Activity (%) BRAF,[2]; [8],49% and 38% and 54% and 59% and 53%
same,Kinase Activity (%) BRAF,"[2]; concentration 1110 nM, 1.11 µM",-5% and -3% and 2% and 4% and 5%
same,Kinase Activity (%) BRAF,"[2]; concentration 3330 nM, 3.33 µM",-5% and 1% and 4%
same,activity at 0.000495 µM,[3]; concentration 0.495 nM,90%
same,Kinase Activity (%),[3]; [5],96% (2×) and 93% and 95%
same,activity at 0.00152 µM,[3]; concentration 1.52 nM,89%
same,Kinase Activity (%),[3]; [6],91% and 95% and 92% and 94%
same,activity at 0.00457 µM,[3]; concentration 4.57 nM,87%
same,Kinase Activity (%),[3]; [7],96% and 91% and 88%
same,activity at 0.0412 µM,[3]; concentration 41.2 nM,68%
same,Kinase Activity (%),[3]; [8],64% and 78% (2×) and 82% and 72%
same,Kinase Activity (%),"[3]; concentration 123 nM, 0.123 µM",45% and 36% and 54% and 60% and 51% and 56%
same,activity at 1.11 µM,[3]; concentration 1110 nM,6%
same,Kinase Activity (%),"[3]; concentration 1110 nM, 1.11 µM",8% and 12% (2×) and 10%
same,Kinase Activity (%),"[3]; concentration 3330 nM, 3.33 µM",1% (3×) and 2% (2×) and 0%
same,Kinase Activity (%),"[3]; concentration 10000 nM, 10 µM",2% (2×) and 0% (2×) and -1% and 1%
same,activity at 0.000495 µM,"[4]; concentration 0.495 nM, replicates",97%
same,Kinase Activity (%),"[4]; concentration 0.495 nM, replicates, 0.000495 µM",102% and 93% and 92% and 98%
same,activity at 0.00152 µM,"[4]; concentration 1.52 nM, replicates",100%
same,Kinase Activity (%),"[4]; concentration 1.52 nM, replicates, 0.00152 µM",93% and 94%
same,activity at 0.00457 µM,"[4]; concentration 4.57 nM, replicates",96%
same,Kinase Activity (%),"[4]; concentration 4.57 nM, replicates, 0.00457 µM",94% (2×) and 89% and 91% and 93%
same,Kinase Activity (%),"[4]; concentration 41.2 nM, replicates, 0.0412 µM",56% and 79% and 66% and 72% and 70% and 71%
same,activity at 0.123 µM,"[4]; concentration 123 nM, replicates",31%
same,Kinase Activity (%),"[4]; concentration 123 nM, replicates, 0.123 µM",30% and 34% (3×) and 32%
same,activity at […],"[4]; concentration 370 nM, replicates",7%
same,Kinase Activity (%),"[4]; concentration 1110 nM, replicates, 1.11 µM",1% (2×) and 3% and 0% and 2% (2×)
same,Kinase Activity (%) CRAF,"[4]; concentration 3330 nM, 3.33 µM",0% and -2% and -1%
same,Kinase Activity (%) CRAF,"[4]; concentration 10000 nM, 10 µM",3% and 0% and 1% and -1%
